The target of one assay is T1, casein kinase 1ε (Homo sapiens, UniProt P49674).
T1 construct: made in house
T1 sequence (P49674 whole entry): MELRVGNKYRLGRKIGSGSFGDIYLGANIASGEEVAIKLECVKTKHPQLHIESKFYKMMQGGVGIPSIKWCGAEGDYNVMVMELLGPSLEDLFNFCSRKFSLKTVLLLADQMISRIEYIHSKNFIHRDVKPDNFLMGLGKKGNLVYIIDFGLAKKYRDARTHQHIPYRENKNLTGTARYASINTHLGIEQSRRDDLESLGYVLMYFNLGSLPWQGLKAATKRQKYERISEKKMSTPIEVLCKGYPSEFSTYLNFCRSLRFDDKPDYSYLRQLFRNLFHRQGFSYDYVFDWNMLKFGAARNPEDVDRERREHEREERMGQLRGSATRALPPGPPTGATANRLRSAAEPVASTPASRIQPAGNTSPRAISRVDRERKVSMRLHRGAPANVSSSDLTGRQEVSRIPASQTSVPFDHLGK
In words: Casein Kinase Epsilon 33P-ATP Filter Plate Assay. The format is biochemical.
Conditions: not given
An excerpt:
Casein Kinase Epsilon ^33P-ATP Filter Plate Assay for Screening CK1 Inhibitors Purpose: This assay measures the effect of compounds to inhibit the phosphorylation of the substrate casein by the enzyme casein kinase 1ε using an in vitro ^33P-ATP filtration assay.
Equipment: • Beckman Biomek 2000 Liquid Handling Robot • Beckman Multimek 96 Automated 96 Channel Pipettor • Millipore Vacuum Manifold Basic Kit # MAVM0960R • Titertek Multidrop Liquid Dispenser • Packard TopCount NXT Liquid Scintillation Counter
Enzyme: • Casein Kinase 1ε final concentration 0.58 mg/ml obtained from fermentation and purification processes performed by Aventis Pharmaceuticals Inc., France. The above are stored as 100 μL aliquots at minus 80° C.
Compounds: • Compounds for testing are supplied as frozen 10 mM compound stock dissolved in 100% DMSO. Assay Conditions:
Final total assay volume per well is equal to 50 μL made up as follows: • 5 μL of diluted compound stock ([…], 0.1, 0.01 or 0.001 μM), • 5 μL of dephosphorylated casein final concentration 0.2 μg/μL, • 20 μL of CK1ε final concentration 3 ng/μL, and • 20 μL of γ-^33P-ATP final concentration 0.02 μCi/μL mixed with cold ATP (10 μM final). Methodology: • 1. 500 mL of fresh assay buffer is made: 50 mM Tris pH 7.5, 10 mM MgCl2, 2 mM DTT and 1 mM EGTA • 2. Compounds to be evaluated are obtained as 10 μL of 10 mM stock dissolved in 100% DMSO. Using a Biomek 2000 liquid handling robot, serial dilutions are made to yield 10, 1, 0.1, 0.01 and 0.001 μM final compound dilutions added as 5 μL additions to Falcon U bottom plates. […] A routine screening assay will consist of 32 compounds, which equals 4 assay plates. • 3. Assay plate maps are set up according to the following pattern
• 4. […] Finally 20 μL […] (0.02 μCi/μL)/10 μM cold ATP are added (equals approximately 2×10^6 CPM per well). • 6. The Falcon U-Bottom assay plate containing the above 50 μL reaction volume is vortexed and then incubated at room temperature for 2 hours. • 7. At the end of 2 hours, the reaction is stopped by the addition of 65 μL of ice cold 2 mM cold ATP (made up in assay buffer) to the assay plates using a Beckman Multimek • 8. At the same time 25 μL 100% ice cold TCA made up in distilled H2O is added to a matching number of Millipore MAPH filter plates. • 9. Using a handheld 8-channel pipettor, 100 μL of the reaction mixture is transferred from the Falcon U-Bottom Plate to the Millipore MAPH filter plates presoaked with TCA. • 10. The Millipore MAPH filter plates are mixed gently and allowed to sit at room temperature for at least 30 minutes to precipitate the proteins. • 11. After 30 minutes the filter plates are placed on a Millipore vacuum manifold and filtered at no more than 8 mm Hg as the MAPH filters tend to “air lock” at higher vacuum settings. • 12. The filter plates are sequentially washed and filtered with 2×150 μL 20% TCA, 2×150 μL 10% TCA and 2×150 μL 5% TCA (total of 6 washes per plate/900 μL per well). • 13. Plates are allowed to dry overnight at room temperature. The next day 40 μL Packard Microscint-20 Scintillation Fluid is added per well using a Titertek Multidrop dispenser; the plates are sealed and counted for 2 minutes/well in a Packard Topcount NXT Scintillation Counter (CPM values/well are captured). Calculation: • 1. Counts Per Minute (CPM) data is captured and imported into a proprietary data calculation and archiving database (Activity Base by IDBS version 5.0). • 2. Column 1 for each plate reflects total phosphorylation activity of the enzyme in the absence of any inhibiting compound and thus represents 100%. Column 12 reflects any nonspecific phosphorylation/retained radioactivity activity in the absence of inhibiting compound and enzyme.
A word on the IC50: it is the midpoint of a concentration-inhibition curve. With `NC(=O)c1[nH]c2cccnc2c1Sc1cccc(Cl)c1Cl` [Ia-9, 3-(2,3-Dichlorophenylsulfanyl)-1H-pyrrolo[3,2-b]pyridine-2-carboxylic acid amide], the IC50 was more than 10000 nM.

For the compound `NC(=O)c1[nH]c2cccnc2c1Sc1cccc(C(F)(F)F)c1` [Ia-11, 3-(3-Trifluoromethyl-phenylsulfanyl)-1H-pyrrolo[3,2-b]pyridine-2-carboxylic acid, amide], the IC50 worked out at 709 nM.

Take `NC(=O)c1[nH]c2cccnc2c1Sc1cc(Cl)ccc1Cl` [Ia-13, 3-(2,5-Dichloro-phenylsulfanyl)-1H-pyrrolo[3,2-b]pyridine-2-carboxylic acid amide]: the IC50 was more than 10000 nM.

In turn, `COc1ccccc1Sc1c(C(N)=O)[nH]c2cccnc12` [Ia-14, 3-(2-Methoxy-phenylsulfanyl)-1H-pyrrolo[3,2-b]pyridine-2-carboxylic acid amide] returned an IC50 of 669 nM.

`NC(=O)c1[nH]c2cccnc2c1Sc1cccc(N)c1` [Ia-16, 3-(3-Amino-phenylsulfanyl)-1H-pyrrolo[3,2-b]pyridine-2-carboxylic acid amide] registered a half-maximal inhibitory concentration (IC50) of 424 nM.

Turning to `NC(=O)c1[nH]c2cccnc2c1Sc1ccc([N+](=O)[O-])cc1` [Ia-17, 3-(4-Nitro-phenylsulfanyl)-1H-pyrrolo[3,2-b]pyridine-2-carboxylic acid amide], the IC50 stood at 9790 nM.

As to `Cc1ccccc1Sc1c(C(N)=O)[nH]c2cccnc12` [Ia-19, 3-o-Tolylsulfanyl-1H-pyrrolo[3,2-b]pyridine-2-carboxylic acid amide], inhibition was half-maximal at 140 nM (IC50).

As to `Cc1cc(C)cc(Sc2c(C(N)=O)[nH]c3cccnc23)c1` [Ia-21, 3-(3,5-Dimethyl-phenylsulfanyl)-1H-pyrrolo[3,2-b]pyridine-2-carboxylic acid amide], the midpoint of inhibition, the IC50, lay at 6880 nM.

`CCc1ccccc1Sc1c(C(N)=O)[nH]c2cccnc12` [Ia-23, 3-(2-Ethyl-phenylsulfanyl)-1H-pyrrolo[3,2-b]pyridine-2-carboxylic acid amide] registered an IC50 of 6480 nM.

`NC(=O)c1[nH]c2cccnc2c1Sc1cccc(OC(F)(F)F)c1` [Ia-24, 3-(3-Trifluoromethoxy-phenylsulfanyl)-1H-pyrrolo[3,2-b]pyridine-2-carboxylic acid, amide] gave an IC50 of 219 nM.

`NC(=O)c1[nH]c2cccnc2c1Sc1ccccn1` [Ia-26, 3-(Pyridin-2-sulfanyl)-1H-pyrrolo[3,2-b]pyridine-2-carboxylic acid amide]: it took 190 nM to reach half-maximal inhibition (IC50).

Compound `NC(=O)c1[nH]c2cccnc2c1Sc1ccncc1` [Ia-27, 3-(Pyridin-4-sulfanyl)-1H-pyrrolo[3,2-b]pyridine-2-carboxylic acid amide] registered an IC50 of 2980 nM.

For `NC(=O)c1[nH]c2cccnc2c1Sc1cccs1` [Ia-28, 3-(Thiophen-2-ylsulfanyl)-1H-pyrrolo[3,2-b]pyridine-2-carboxylic acid amide], inhibition was half-maximal at 53 nM (IC50).

Compound `CNC(=O)c1c(Sc2ccccc2)c2ncccc2n1C` [Ia-29, 1-Methyl-3-phenylsulfanyl-1H-pyrrolo[3,2-b]pyridine-2-carboxylic acid methylamide] gave a 50% inhibitory concentration (IC50) of more than 10000 nM.

For the compound `CNC(=O)c1[nH]c2cccnc2c1Sc1cccc(OC(F)(F)F)c1` [Ia-30], the IC50 is more than 10000 nM.

`CNC(=O)c1[nH]c2cccnc2c1Sc1cccc(Cl)c1` [Ia-31] gave a half-inhibitory concentration (IC50) of more than 10000 nM.

As to `CNC(=O)c1[nH]c2cccnc2c1Sc1ccccc1` [Ia-33, 3-Phenylsulfanyl-1H-pyrrolo[3,2-b]pyridine-2-carboxylic acid methylamide], the half-maximal inhibitory concentration (IC50) is more than 10000 nM.

Compound `Cn1c(C(N)=O)c(Sc2ccccc2)c2ncccc21` [Ia-34, 1-Methyl-3-phenylsulfanyl-1H-pyrrolo[3,2-b]pyridine-2-carboxylic acid amide] registered an IC50 of 339 nM.

`COc1ccc2[nH]c(C(N)=O)c(Sc3cccc(F)c3)c2n1` [Ia-35, 3-(3-Fluoro-phenylsulfanyl)-5-methoxy-1H-pyrrolo[3,2-b]pyridine-2-carboxylic acid amide] registered an IC50 of 896 nM.

Compound `COc1cccc(Sc2c(C(N)=O)[nH]c3ccc(OC)nc23)c1` [Ia-36, 3-(3-Methoxy-phenylsulfanyl)-5-methoxy-1H-pyrrolo[3,2-b]pyridine-2-carboxylic acid amide] displayed an IC50 of 86 nM.

In turn, `CCCn1c(C(N)=O)c(Sc2ccccc2)c2ncccc21` [Ia-37, 3-Phenylsulfanyl-1-propyl-1H-pyrrolo[3,2-b]pyridine-2-carboxylic acid amide] returned an IC50 of 123 nM.

`NC(=O)c1[nH]c2ccncc2c1Sc1ccccc1` [Ib-1, 3-Phenylsulfanyl-1H-pyrrolo[3,2-c]pyridine-2-carboxylic acid amide]: half-maximal inhibition (IC50) was put at 1130 nM.

Turning to `NC(=O)c1[nH]c2ccncc2c1Sc1cccc(F)c1` [Ib-2], the IC50 came out at 466 nM.

For `NC(=O)c1[nH]c2ccncc2c1Sc1ccc(Cl)cc1` [Ib-3], inhibition was half-maximal at 7960 nM (IC50).

`NC(=O)c1[nH]c2cnccc2c1Sc1ccccc1` [Ic-1, 3-Phenylsulfanyl-1H-pyrrolo[2,3-c]pyridine-2-carboxylic acid amide] registered an IC50 of 388 nM.

`NC(=O)c1[nH]c2cnccc2c1S(=O)(=O)c1ccccc1` [Ic-2, 3-Benzenesulfonyl-1H-pyrrolo[2,3-c]pyridine-2-carboxylic acid amide] registered an IC50 of more than 10000 nM.

The compound `NC(=O)c1[nH]c2cnccc2c1Sc1cccc(F)c1` [Ic-3, 3-(3-Fluoro-phenylsulfanyl)-1H-pyrrolo[2,3-c]pyridine-2-carboxylic acid amide] showed a half-maximal inhibitory concentration (IC50) of 1840 nM.

`COc1cccc(Sc2c(C(N)=O)[nH]c3cnccc23)c1` [Ic-4, 3-(3-Methoxy-phenylsulfanyl)-1H-pyrrolo[2,3-c]pyridine-2-carboxylic acid amide] displayed an IC50 of 397 nM.

In turn, `NC(=O)c1[nH]c2cnccc2c1Sc1cccc(Cl)c1` [Ic-5, 3-(3-Chloro-phenylsulfanyl)-1H-pyrrolo[2,3-c]pyridine-2-carboxylic acid amide] returned an IC50 of 375 nM.

The compound `NC(=O)c1[nH]c2cnccc2c1Sc1ccccc1C(F)(F)F` [Ic-6, 3-(2-Trifluoromethyl-phenylsulfanyl)-1H-pyrrolo[2,3-c]pyridine-2-carboxylic acid amide] came in with an IC50 of 759 nM.

Regarding `NC(=O)c1[nH]c2cnccc2c1Sc1ccccc1OC(F)(F)F` [Ic-7, 3-(2-Trifluoromethoxy-phenylsulfanyl)-1H-pyrrolo[2,3-c]pyridine-2-carboxylic acid amide], the concentration for half-maximal inhibition (IC50) is 1290 nM.

Compound `COc1ccccc1Sc1c(C(N)=O)[nH]c2cnccc12` [Ic-8, 3-(2-Methoxy-phenylsulfanyl)-1H-pyrrolo[2,3-c]pyridine-2-carboxylic acid amide] registered an IC50 of 442 nM.

For `NC(=O)c1[nH]c2cnccc2c1Sc1ccccn1` [Ic-9, 3-(Pyridin-2-sulfanyl)-1H-pyrrolo[2,3-c]pyridine-2-carboxylic acid amide], the concentration for half-maximal inhibition (IC50) amounted to 291 nM.

The same assay, now with this note: phosphorylation of casein, 10 μM cold ATP, 2 hours room temperature; * denotes average of 2 or more determinations; read-out: Casein Kinase Iε 33P-ATP Filter Plate Assay IC50.
For the compound `CNC(=O)c1[nH]c2cccnc2c1Sc1cccc(F)c1` [Ia-32], the IC50 is more than 10000 nM.

Source of the values: patent US7626027B2, “Substituted 1H-pyrrolo[2,3-c]pyridine-2-carboxamides and related analogs as inhibitors of casein kinase Iε” (Aventis Pharmaceuticals Inc, priority 2003, dated 2009).
